Experimental data taken from the Deep4Chem optical property database.
Values belong to the compound of their own block, whether it stands above or below them.

Assay: solvent given as SMILES

SMILES: CC(C)(C)c1ccc(-c2cnc3cccc(-c4ccccc4)n23)cc1
absorption maximum (in ClCCl): 339 nm

SMILES: CCCN1c2ccc(C#CC3=C4C=CC=[N+]4[B-](F)(F)n4cccc43)cc2Sc2cc(C#CC3=C4C=CC=[N+]4[B-](F)(F)n4cccc43)ccc21
absorption maximum (in ClCCl): 542 nm

SMILES: N#Cc1cc(C#N)c(-c2cc(-n3c4ccccc4c4ccccc43)cc(-n3c4ccccc4c4ccccc43)c2)cc1-c1ccc(N(c2ccccc2)c2ccccc2)cc1
absorption maximum (in Cc1ccccc1): 405 nm

SMILES: B1C=Cc2ccc3ccccc3c2N1
absorption maximum (in C1CCCCC1): 351 nm

SMILES: N#Cc1c2nc3ccccn3c2nc2c1nc1ccccn12
absorption maximum (in C1CCCCC1): 410 nm | absorption maximum (in C1COCCO1): 425 nm | absorption maximum (in CC#N): 430 nm | absorption maximum (in CN(C)C=O): 435 nm | absorption maximum (in ClC(Cl)Cl): 425 nm

SMILES: CC[n+]1nc2ccc(N(C)C)cc2c2cc(C)ccc21
absorption maximum (in O): 483 nm

SMILES: CCCCCCCC[Si](C)(C)c1cccc2ccccc12
absorption maximum (in C1CCCCC1): 294 nm

SMILES: c1ccc(-c2nc(-c3ccccc3)nc(-n3c4ccccc4c4cc(-n5c6ccccc6c6ccccc65)cc(-n5c6ccccc6c6ccccc65)c43)n2)cc1
absorption maximum (in C1CCOC1): 332.68 nm

SMILES: O=C1C=C(Nc2ccccc2)CCC1
absorption maximum (in C1CCCCC1): 295 nm | absorption maximum (in C1CCOC1): 302 nm | absorption maximum (in C1COCCO1): 302 nm | absorption maximum (in CC1CCCCC1): 295 nm | absorption maximum (in CC#N): 307 nm | absorption maximum (in CC(C)O): 307 nm | absorption maximum (in CCO): 307 nm | absorption maximum (in CCOC(C)=O): 301 nm | absorption maximum (in CCOCC): 296 nm | absorption maximum (in CN(C)C=O): 306 nm | absorption maximum (in CO): 305 nm | absorption maximum (in CS(C)=O): 307 nm | absorption maximum (in ClC(Cl)(Cl)Cl): 299 nm | absorption maximum (in ClC(Cl)Cl): 303 nm | absorption maximum (in O): 306 nm

SMILES: CN(C)c1cc(-c2ccc(C#Cc3cc[n+](C)cc3)cc2)cc2ccccc12
absorption maximum (in ClCCl): 366 nm

SMILES: Cc1cc(C)c(C2=C3C=CC4=[N+]3[B-]3(Oc5ccccc54)Oc4ccccc4-c4ccc2n43)c(C)c1 (stereo not drawn)
absorption maximum (in ClC(Cl)Cl): 626 nm

SMILES: O=P1(c2ccccc2)C(c2ccc(C(F)(F)F)cc2)=Cc2cc3ccccc3cc21 (stereo not drawn)
absorption maximum (in ClCCl): 387 nm

SMILES: O=Cc1ccc(C#CC(C#Cc2ccc(C=O)s2)=Cc2ccc(C=C(C#Cc3ccc(C=O)s3)C#Cc3ccc(C=O)s3)s2)s1
absorption maximum (in ClC(Cl)Cl): 524 nm

SMILES: O=[N+]([O-])c1ccc(NCCNCc2c3ccccc3cc3ccccc23)c([N+](=O)[O-])c1
absorption maximum (in C1CCCCC1): 368 nm | absorption maximum (in C1CCOC1): 349 nm | absorption maximum (in CC#N): 364 nm | absorption maximum (in CC(C)=O): 364 nm | absorption maximum (in CCO): 364 nm | absorption maximum (in CN(C)C=O): 363 nm | absorption maximum (in CO): 348 nm | absorption maximum (in ClC(Cl)Cl): 350 nm

SMILES: COc1cc(C2=C(c3ccc(C(C)(C)C)cc3)C(c3ccc(C(C)(C)C)cc3)=[N+]3C2=Nc2c(-c4cc(OC)c(OC)c(OC)c4)c(-c4ccc(C(C)(C)C)cc4)c(-c4ccc(C(C)(C)C)cc4)n2[B-]3(F)F)cc(OC)c1OC
absorption maximum (in Cc1ccccc1): 675 nm

SMILES: O=C1OC(c2ccccc2)=N/C1=C\c1ccc(N(c2ccc(/C=C3\N=C(c4ccccc4)OC3=O)cc2)c2ccc(/C=C3/N=C(c4ccccc4)OC3=O)cc2)cc1
absorption maximum (in C1CCCCC1): 497.5 nm | absorption maximum (in C1CCOC1): 500 nm | absorption maximum (in C1COCCO1): 502 nm | absorption maximum (in CC1CCCCC1): 498.5 nm | absorption maximum (in CC#N): 498 nm | absorption maximum (in CC(C)=O): 499 nm | absorption maximum (in CC(C)CC(C)(C)C): 492 nm | absorption maximum (in CCCCC): 489 nm | absorption maximum (in CCCCCC): 491 nm | absorption maximum (in CCCCCCC): 495 nm | absorption maximum (in CCCCOCCCC): 497.5 nm | absorption maximum (in CCOC(C)=O): 496 nm | absorption maximum (in CCOCC): 496.5 nm | absorption maximum (in CN(C)C=O): 504 nm | absorption maximum (in CS(C)=O): 506 nm | absorption maximum (in Cc1ccccc1): 505.5 nm | absorption maximum (in ClC(Cl)Cl): 509.5 nm

SMILES: CCCCC1(CCCC)c2cc(/C=C/c3ccc(N(c4ccccc4)c4ccccc4)cc3)ccc2-c2cc3c(cc21)-c1ccc(/C=C/c2ccc(N(c4ccccc4)c4ccccc4)cc2)cc1C3(CCCC)CCCC
absorption maximum (in Cc1ccccc1): 413 nm

SMILES: COc1ccc(/C=C/C2=CC(/C=C/c3ccc(OC)c4ccccc34)=[O+][B-](F)(F)O2)c2ccccc12
absorption maximum (in CC#N): 530 nm | absorption maximum (in CC(C)=O): 532 nm | absorption maximum (in CCOC(C)=O): 524 nm | absorption maximum (in CCOCC): 516 nm | absorption maximum (in ClC(Cl)(Cl)Cl): 523 nm | absorption maximum (in ClCCl): 536 nm

SMILES: c1ccc(N(c2ccccc2)c2ccc3ccc4c(N(c5ccccc5)c5ccccc5)ccc5ccc2c3c54)cc1
absorption maximum (in Cc1ccccc1): 426 nm | absorption maximum (in ClCCl): 423 nm

SMILES: COc1ccc(-c2nnc(-c3cc(-c4nnc(-c5ccc(OC)cc5)o4)c(-n4c5ccccc5c5ccccc54)cc3-n3c4ccccc4c4ccccc43)o2)cc1
absorption maximum (in Cc1ccccc1): 371 nm

SMILES: CCCC1=Cc2nc1ccc1[nH]c(cc1CCOC)c1nc(ccc3[nH]c2cc3CCC)C(CCOC)=C1
absorption maximum (in Cc1ccccc1): 638 nm

SMILES: F[B-]1(F)n2c(c(Sc3ccccc3)c3c2-c2ccccc2CC3)C=C2C(Sc3ccccc3)=C3CCc4ccccc4C3=[N+]21
absorption maximum (in CC#N): 640 nm

SMILES: CCCC1=Cc2nc1ccc1[nH]c(cc1CCC)c1nc(c(OC(=O)CCCC(=O)OC(C)(C)C)cc3[nH]c2cc3CCC)C(CCC)=C1
absorption maximum (in Cc1ccccc1): 645 nm

SMILES: CC[n+]1c(C=C2C(=O)C(C=C3N(C)c4ccc(Cl)cc4C3(C)C)=C2[O-])[se]c2ccccc21
absorption maximum (in CO): 644 nm | absorption maximum (in ClC(Cl)Cl): 655 nm | absorption maximum (in ClCCl): 659 nm

SMILES: O=C(Cc1ccccc1)OCc1ccc2c3cccc4cccc(c5cccc1c52)c43
absorption maximum (in CCO): 438 nm

SMILES: CN(C)c1ccc2nc3c(cc2c1)c(-c1ccccc1)nn3-c1ccccc1
absorption maximum (in C1CCCCC1): 439.56 nm | absorption maximum (in C1CCOC1): 450.05 nm | absorption maximum (in CC#N): 449.24 nm | absorption maximum (in CC(C)=O): 450.45 nm | absorption maximum (in CCCCCl): 448.43 nm | absorption maximum (in CCCCOCCCC): 444.64 nm | absorption maximum (in CN(C)C=O): 452.69 nm

SMILES: c1ccc2c([SiH](c3c4ccccc4cc4ccccc34)c3c4ccccc4cc4ccccc34)c3ccccc3cc2c1
absorption maximum (in ClC(Cl)Cl): 401 nm

SMILES: Cc1ccc(/C=C(\c2ccccc2)c2nc3ccccc3s2)cc1
absorption maximum (in C1CCCCC1): 340 nm | absorption maximum (in CO): 345 nm

SMILES: C(=C\c1c2ccccc2cc2ccccc12)/c1ccc2ccccc2c1
absorption maximum (in CC1CCCCC1): 386 nm | absorption maximum (in CC#N): 387 nm

SMILES: CCCN1c2ccccc2Sc2cc(C#CC3=C4C=CC=[N+]4[B-](F)(F)n4cccc43)ccc21
absorption maximum (in ClCCl): 540 nm

SMILES: CCN(CC)c1ccc2c(C#N)c(/C=C(\C#N)c3nc4ccccc4s3)c(=O)oc2c1
absorption maximum (in C1COCCO1): 561 nm | absorption maximum (in CC#N): 597 nm | absorption maximum (in CCO): 602 nm | absorption maximum (in CCOC(C)=O): 568 nm | absorption maximum (in CN(C)C=O): 525 nm | absorption maximum (in CO): 591 nm | absorption maximum (in CS(C)=O): 531 nm | absorption maximum (in Cc1ccccc1): 560 nm | absorption maximum (in ClCCl): 611 nm

SMILES: O=C1CC(c2ccccc2)c2c(c3ccccc3c3nc4ccccc4nc23)O1 (stereo not drawn)
absorption maximum (in ClC(Cl)Cl): 410 nm

The next lines start with the values.

absorption maximum (in C1CCOC1): 360 nm | absorption maximum (in C1COCCO1): 362 nm | absorption maximum (in CC#N): 354 nm | absorption maximum (in CCCCCO): 370 nm | absorption maximum (in CCCCO): 370 nm | absorption maximum (in CCCO): 368 nm | absorption maximum (in CCO): 369 nm | absorption maximum (in CO): 356 nm | absorption maximum (in COCCOC): 360 nm | absorption maximum (in ClC(Cl)Cl): 362 nm | absorption maximum (in ClCCl): 362 nm | absorption maximum (in OCCO): 356 nm
SMILES: O=C(O)c1c2ccccc2nc2ccccc12

absorption maximum (in CC#N): 724 nm | absorption maximum (in CCO): 710 nm | absorption maximum (in CO): 714 nm | absorption maximum (in ClC(Cl)Cl): 730 nm
SMILES: C[N+]1=C(/C=C/C2=C3Oc4c(cc5c6c4CCCN6CCC5)C(c4ccccc4C(=O)O)=C3CCC2)C(C)(C)c2ccccc21

absorption maximum (in C1CCCCC1): 325 nm
SMILES: C#Cc1ccc(C#Cc2cnc(C#Cc3ccccc3)nc2)cc1

absorption maximum (in CC#N): 540 nm | absorption maximum (in CCCCCC): 562 nm | absorption maximum (in CO): 555 nm
SMILES: COc1ccc2c(c1)N(c1ccc(C)cc1)c1cc3c(cc1=N2)Oc1c(cc(C(C)(C)C)cc1C(C)(C)C)N=3

absorption maximum (in CC#N): 411 nm
SMILES: CN(C)c1ccc(-c2nc3nc4ccccc4nc3n2-c2ccc(C(C)(C)C)cc2)cc1

absorption maximum (in ClCCl): 590 nm
SMILES: CCCCCCOc1ccc(N(c2ccc(OCCCCCC)cc2)c2ccc(-c3sc(-c4ccc(N(c5ccc(OCCCCCC)cc5)c5ccc(OCCCCCC)cc5)cc4)c4nc(-c5ccc(OC)cc5)c(-c5ccc(OC)cc5)nc34)cc2)cc1

absorption maximum (in ClCCl): 495 nm
SMILES: CCc1cccc(CC)c1-c1c2ccccc2c(-c2c(CC)cccc2CC)c2cc3ccccc3cc12

absorption maximum (in ClCCl): 398 nm
SMILES: C[Si]1(C)c2ccc(-c3ccc(-c4cccs4)s3)cc2C=Cc2cc(-c3ccc(-c4cccs4)s3)ccc21

absorption maximum (in O): 494 nm
SMILES: CC[n+]1nc2cc3c4c(c2c2cc(F)ccc21)CCCN4CCC3

absorption maximum (in C1CCCCC1): 364 nm
SMILES: CCCC1(CCC)c2cc(-c3ccco3)ccc2-c2ccc(-c3ccco3)cc21

absorption maximum (in C1CCCCC1): 362 nm | absorption maximum (in CC#N): 355 nm | absorption maximum (in CO): 350 nm | absorption maximum (in ClCCl): 357 nm | absorption maximum (in O): 367 nm
SMILES: c1ccc(-c2nc(-c3cccc4ccccc34)n3ccccc23)cc1

absorption maximum (in ClCCl): 329 nm
SMILES: CC(C)(C)NC(=O)c1cccc2ccc3c4ccc(F)cc4c4cc(F)ccc4c3c12

absorption maximum (in C1COCCO1): 456 nm
SMILES: CC(C)CN1C(=O)/C(=C/c2ccc([N+](=O)[O-])cc2)C=C1c1ccccc1

absorption maximum (in C1CCCCC1): 374 nm | absorption maximum (in CC#N): 374 nm | absorption maximum (in CO): 374 nm | absorption maximum (in ClC(Cl)Cl): 389 nm
SMILES: CC1(C)CC(NCc2ccc3ccc4cccc5ccc2c3c45)CC(C)(C)N1

absorption maximum (in C1CCOC1): 380.5 nm | absorption maximum (in CC#N): 381 nm | absorption maximum (in CCO): 385 nm | absorption maximum (in CN(C)C=O): 389 nm | absorption maximum (in CO): 384.5 nm | absorption maximum (in CS(C)=O): 387.5 nm
SMILES: CCOC(=O)c1sc(SC)c2c(=O)[nH]nnc12

absorption maximum (in C1CCOC1): 437 nm
SMILES: c1ccc2c(P(c3c4ccccc4cc4ccccc34)c3c4ccccc4cc4ccccc34)c3ccccc3cc2c1

absorption maximum (in CCCCCC): 435 nm | absorption maximum (in ClCCl): 435 nm
SMILES: CC(C)[Si](C#Cc1ccc(C#C[Si](C(C)C)(C(C)C)C(C)C)c2nc3cc4c(cc3nc12)[C@H]1c2ccccc2[C@@H]4c2ccccc21)(C(C)C)C(C)C
